Experimental data as given in US10314793B2, “Solubilized CoQ-10” (Soft Gel Technologies, Inc., priority 2003, dated 2019).

Experiment: Solubilization of CoQ-10 in solvent (monoterpenes; prior liquid delivery solvents)
Format: physicochemical
Conditions: without heating or with gentle warming; ambient temperatures
Text: The present invention pertains to the surprising discovery that ubiquinone (CoQ-10) and related analogs thereof can be readily dissolved in varying concentrations in monoterpenes. Generally, until the present discovery, most CoQ-10 liquid delivery methods could solubilize only up to about 5% by weight of the CoQ-10 in the “solvent”. Typical solvents included various oils or the CoQ-10 was held in suspension. The present invention provides the ability to solubilize CoQ-10 in monoterpenes in concentrations of up to about 60% (weight to weight) without the need to aggressively heat the solution or with gentle warming. In particular, the solubilization of the CoQ-10 with monoterpenes can be accomplished at ambient temperatures.
Generally, until the present discovery, most CoQ-10 liquid delivery methods could solubilize only up at most about 10% by weight of the CoQ-10 in the solvent. Typical solvents included oils or the CoQ-10 was held in an aqueous suspension. Alternatively, the CoQ-10 was provided as a solid in a tablet or powder.
The present invention provides the ability to solubilize CoQ-10 and analogs thereof in monoterpenes, as defined herein, in concentrations of up to about 60% (weight to weight) without the need to heat the solution. In one aspect, the monoterpene solubilizes CoQ-10 from about 0.1 percent by weight to about 45 percent by weight. […]

CoQ-10 solubilized in monoterpenes: up to 60 % (weight to weight)
Compound: COC1=C(OC)C(=O)C(C/C=C(\C)CC/C=C(\C)CC/C=C(\C)CC/C=C(\C)CC/C=C(\C)CC/C=C(\C)CC/C=C(\C)CC/C=C(\C)CC/C=C(\C)CCC=C(C)C)=C(C)C1=O [CoQ-10]
